Counter-ions that a name gives are not always drawn.
Assays:
[1] = system: MOG35-55 induced experimental autoimmune encephalomyelitis (EAE) in C57BL/6 mice; assay: Example 9: kinematic gait analysis / MotoRater walk test in EAE mice; assay type: in vivo; settings: for % of animals able to complete the walking test: day 16, EAE mice, untreated EAE control 40%, FIG. 9
Description: The captured videos of each mouse were first converted to SimiMotion software to track the marked points of body (e.g., paws, hips, tail, etc.), and the movement of these different body points in relation to the ground were recorded in coordinates. Different gait patterns and fine motor movements were analyzed using a custom made automated analysis system. Kinematic endpoints are described in Table 13. [table] Kinematic parameters (Table 13) were graphed as individual values in a scatter graph and/or as mean (±SEM) in a bar graph.

[2] = dose related; Gracies and Olanow 2002; cited from earlier work
[3] = system: Iba-1; assay: Example 9: Iba-1 expression (marker of microglia activation) in EAE mice; assay type: in vivo; settings: AMT 60 mg/kg/day, FIG. 8
[4] = system: MOG35-55 induced experimental autoimmune encephalomyelitis (EAE) in C57BL/6 mice; assay: Example 9: clinical scoring of EAE in a mouse model of multiple sclerosis; assay type: in vivo; settings: for onset of disease / clinical scores: AMT 60 mg/kg/day or DAL 4 mg/kg/day by Alzet minipump; for clinical scores: vs untreated EAE mice, FIG. 6; for cumulative clinical score (Day 18-27): vs untreated control, FIG. 7
[5] = system: multiple sclerosis patients; settings: Goodman et al. 2009; cited from earlier work
[6] = system: Parkinson's patients; settings: cited from earlier work

Structure (SMILES)	60 cm Walk Time ([1]; Day 14, vs untreated EAE control and dalfampridine-treated group, FIG. 10A)	mean walking speed ([1]; Day 14, vs untreated EAE control and dalfampridine-treated group, FIG. 10B)	% of animals able to complete the walking test [1] [%]	CNS side effects [2]	Iba-1 expression [3]	symptom severity ([4]; AMT 60 mg/kg/day by Alzet minipump)	onset of disease [4]	clinical scores [4]	cumulative clinical score (Day 18-27) [4]	walking ability [5]	walking ability (velocity and stride length) ([6]; Parkinson's patients, at four weeks, Luca et al. 2015)	gait impairment ([6]; Parkinson's disease, Espay et al. 2011)	gait ([6]; Parkinson's patients with severe gait disorders receiving STN stimulation, Moreau et al. 2012)
NC12CC3CC(CC(C3)C1)C2 [Amantadine HCl]	lower time	faster mean walking speed	60	dose related CNS side effects including dizziness, confusion, hallucinations, insomnia and nightmares	significantly lower expression	decreased symptom severity	Neither group treated with drug showed a delay onset of disease	lower clinical scores	reduced cumulative clinical scores	–	–	–	–
Nc1ccncc1 [Dalfampridine, 4-Aminopyridine]	–	–	50	–	–	–	Neither group treated with drug showed a delay onset of disease	lower clinical scores	reduced cumulative clinical scores	improvement in walking ability in some patients	did not show an improvement	–	–
COC(=O)C(c1ccccc1)C1CCCCN1 (centres unmarked) [Methylphenidate]	–	–	–	–	–	–	–	–	–	–	–	not effective	improvement in gait
